In one assay the test system is mice. Kind of assay: Hot plate test in mice (nociceptive reaction latency). The following applies: i.v., Anandamide 20 mg/kg, Compound 4 10 mg/kg, cut-off 30 seconds; for Nociceptive Reaction Latency, Mean: N 10; for Nociceptive Reaction Latency, individual mice: hot plate 56° C. It counts as in vivo. On the procedure:
This experiment assessed the analgesic effects of anandamide, compound 4, and a combination of anadamide and compound 4 in the hot plate test in mice.
One hundred (100) male Swiss mice ICO: OF1 (IOPS Caw) (Iffa Credo, France) weighing 17 g to 23 g were used in the study. The mice were housed in a temperature (19.5–24.5° C.) and relative humidity (45–65%) controlled room with a 12-h light/dark cycle, with ad libitum access to filtered tap-water and standard pelleted laboratory chow (U.A.R., France) throughout the study. Upon receipt at animal facilities, they were housed 20 per cage and at least a 5-day acclimatization period was observed. Animals were individually identified on their tails.
Ten groups of 10 animals each were used in this study. The individual groups were treated as set forth below. The doses used are expressed in terms of free active substance. The test and reference substances and the vehicle were administered by intravenous route (i.v) in a random order with a volume of 5 mL/kg. Anandamide and compound 4 were concomitantly administered as a mixture by intravenous route under a volume of 10 mL/kg (Groups 3, 7 and 10).
Twenty, thirty and sixty minutes after dosing, a given mouse was placed on a metallic hot plate maintained at 56±0.2° C. The nociceptive reaction latency, characterized by a licking reflex of the forepaws or by a jumping off the hot plate, was recorded. The cut-off time was set to 30 seconds. See Eddy NB, Touchberry CF, Lieberman JE. “Synthetic analgesics.
The mean results from these experiments are presented graphically in FIG. 6. The results tabulated in FIG. 6 are expressed as mean±sem. ANOVA (2 ways): time/treatment's effect as well as interaction between the two, for vehicle, anandamide and association groups. Dunnett's test: * indicates a significant difference in comparison with the vehicle-treated group for P<0.05. Dunnett's test :† indicates a significant difference in comparison with the same treated group at t−60 min for P<0.05. ANOVA (1 ways): at t−30 min for vehicle, anandamide, compound 4 and association groups. Dunnett's test: ° indicates a significant difference in comparison with the vehicle-treated group for P<0.05. Vehicle: Saline+20% DMSO; n=10 mice per groups.
Background: Hot-plate and tail-flick tests time the reaction to a heat stimulus.

In assay [1] the test system is mammalian anandamide transporter. Kind of assay: Anandamide uptake functional assay. It counts as cell-based, human. The following applies: reference compound; U-937 cells, [3H]-AEA uptake; read-out: IC50 of AM-404 in this assay. On the procedure:
The characterization of anandamide uptake was performed with human monocytes (U-937 cells), using a 96 wells format (volume of the reaction 500 μL). Uptake of radiolabelled anandamide by U-937 cells (10^5 cells in 400 μL/well) occured during a 15 minutes incubation time at 37° C. in the presence of test compounds added in solution in 50 μL and 50 μL of [^3H]-AEA (2 nM)/AEA (98 nM).
U-937 cells and [^3H]-AEA/AEA were prepared in a Krebs buffer pH 7.4 containing 25 mM NaHCO3, 11 mM glucose, 50 μM ascorbic acid and 1% BSA. This incubation buffer is oxygenated for 5 minutes before incubation. Basal control is incubated for 15 minutes at 4° C., in absence of any test or reference compound to prevent uptake.
Following incubation, uptake was stopped by filtration through a “unifilter 96-well GFB plate” (Packard) washed with Krebs buffer containing 25 mM NaHCO3 to eliminate the free [^3H]-AEA. The radioactivity associated with the U-937 cells corresponding to the uptake was retained on the unifilter and was measured with a Topcount Microplate Scintillation Counter, (Packard) using Microscint 0 scintillation liquid (Packard).
FIGS. 3–5 depict certain compounds of the present invention and their IC50 values as determined in this assay. […]

The subject of another assay is AT. The note with it: background; read-out: IC50, inhibits AT; cited from earlier work.

SMILES strings stand for the structures. “And” between values parts separate entries of the source, which are not always exact repeats. Identical values can stand only once.

Turning to `CCCCC/C=C\C/C=C\C/C=C\C/C=C\CCCC(=O)NCCO` [Anandamide, N-(2-hydroxyethyl)arachidonamide], the “Nociceptive Reaction Latency, Mean” value turned out to be 8.9 s with mice (20 minutes post-administration), 8.1 s with mice (30 minutes post-administration) and 11.7 s with mice (60 minutes post-administration). Further, the “Nociceptive Reaction Latency, individual mice” value with mice (20 minutes post-administration) was 10.3 s and 21.2 s and 6.3 s and 8.8 s and 4.9 s and 5.3 s and 8.1 s and 7.8 s and 5.1 s and 11.5 s; in the assay with mice (30 minutes post-administration) it was 8.9 s and 7.5 s and 10.7 s and 7.9 s and 5.2 s and 9.7 s and 10 s and 7.1 s and 6.5 s and 7.8 s; with mice (60 minutes post-administration), 6.9 s and 11.1 s and 10.1 s and 9.3 s and 11.7 s and 8.9 s and 16.1 s and 13.5 s and 24.4 s and 4.6 s.

In general, IC50 refers to the concentration needed to halve the response being measured. Regarding `CCCCC/C=C\C/C=C\C/C=C\C/C=C\CCCC(=O)Nc1ccc(O)cc1` [AM-404, N-(4-hydroxyphenyl)arachidonamide], the IC50 in assay [1] was 2000 nM; in the assay on AT, around 2000 nM.

With `C=CCOc1ccc(CN(CC=Cc2ccccc2)CCOC)cc1` [Compound 4, N-(4-Allyloxybenzyl)-N-(2-methoxyethyl)-N-(3-phenyl-allyl)amine], in the assay on mice (30 minutes post-administration), the “Nociceptive Reaction Latency, Mean” value stood at 10.2 s; the “Nociceptive Reaction Latency, individual mice” value was 10 s and 12.8 s and 14.5 s and 4.5 s and 10.4 s and 4.2 s and 9.6 s and 13.5 s and 16.3 s and 6.1 s.
